Measurements published in PubChem BioAssay AID1996.
Values after ≈ are worked out from the molar mass of the structure shown.

Conditions: buffer; pH 7.4; 200.0 µM

Structure (SMILES)	solubility kinetic
CC1(C)C(c2ccccc2)=NC(c2ccc(Br)cc2)N1O (centres undefined)	3.7 µg/mL (≈ 10.7 µM)
Cc1cc(C)nc(SCC(=O)c2ccc(F)cc2)n1	38.5 µg/mL (≈ 139 µM)
CC(C)(C)n1cnc2cc(NC(=O)c3cccs3)ccc21	> 44.9 µg/mL
Cc1cc(C(=O)OCC(=O)N(C)c2ccccc2)ccc1[N+](=O)[O-]	42.1 µg/mL (≈ 128 µM)
CCOC(=O)c1ccc(S(=O)(=O)N2CCN(CCc3ccncc3)CC2)cc1	> 60.5 µg/mL
O=C(NC1CCN(S(=O)(=O)c2ccccc2)CC1)c1ccccc1	< 0.4 µg/mL
COC(=O)c1[nH]c2cc(OC)ccc2c1N=CN(C)C	38.4 µg/mL (≈ 139 µM)
COc1ccc(CNC(=O)COC(=O)CN2C(=O)C3CC=CCC3C2=O)cc1 (centres undefined)	> 58 µg/mL
O=C(Nc1ncc([N+](=O)[O-])s1)c1ccc2c(c1)OCO2	24.9 µg/mL (≈ 84.9 µM)
CC(NC(=O)CSc1ncccc1C(=O)O)C1CC2CCC1C2 (centres undefined)	> 50.2 µg/mL
O=C(OCC(=O)N1CCN(c2ccc(F)cc2)CC1)c1cnc2ccccc2n1	19.5 µg/mL (≈ 49.4 µM)
COc1ccc(NC(=O)C#Cc2ccccc2)cc1OC	37.6 µg/mL (≈ 134 µM)
CN(c1ccccc1)S(=O)(=O)c1ccc(C(=O)N2CCN(c3ccccc3F)CC2)cc1	3.6 µg/mL (≈ 7.94 µM)
COc1ccc(C2Nc3ccccc3C(=O)N2NC(C)=O)cc1OC (centres undefined)	> 51.2 µg/mL
COc1ccc(CC(=O)NCCCSc2ccccc2)cc1OC	45.9 µg/mL (≈ 133 µM)
CCOC(=O)c1[nH]c(C)c(C(=O)/C=C/c2ccc(C(=O)O)cc2)c1C	> 51.2 µg/mL
O=C(Nc1ccccc1F)N1CCCC1c1cccnc1 (centres undefined)	40.9 µg/mL (≈ 143 µM)
CC(C)(C)N/C=C(\C#N)S(=O)(=O)c1ccc(Br)cc1	7.7 µg/mL (≈ 22.4 µM)
Cn1ccs/c1=N\C(=O)Nc1cccc(C(F)(F)F)c1	> 45.2 µg/mL

Structure (SMILES)	solubility kinetic
O=S(=O)(NCCn1cccc1)c1ccc2ccccc2c1	2.1 µg/mL (≈ 6.99 µM)
c1ccc(NC(c2ccccc2)c2ccncc2)cc1 (centres undefined)	25.5 µg/mL (≈ 97.9 µM)
COc1ccccc1CCNC(=O)Cc1cccs1	37.5 µg/mL (≈ 136 µM)
Cc1cc(SCC(=O)[O-])nc2ccccc12	31 µg/mL
COc1cccc(C(=O)NCc2ccc3c(c2)OCO3)c1	37 µg/mL (≈ 130 µM)
CCCNC(=O)c1cccc(Br)c1	> 36.3 µg/mL
CCc1nonc1NC(=O)COc1cc(C)c(Cl)c(C)c1	0.3 µg/mL (≈ 0.969 µM)
CCCCn1c(CCC(=O)O)nc2cc(S(=O)(=O)N3CCCC3)ccc21	> 56.9 µg/mL
CCCc1c(C)[nH]c2nc3ccccc3n2c1=O	3.6 µg/mL (≈ 14.9 µM)
CC1CCCC(C)N1C(=O)COC(=O)c1ccc(Br)c(S(=O)(=O)N2CCOCC2)c1 (centres undefined)	74.2 µg/mL (≈ 147 µM)
COC(=O)c1ccc(NC(=O)C[n+]2ccccc2)cc1.[Cl-]	> 46 µg/mL
COc1ccc(-c2cc(C(=O)NCc3ccco3)c3ccccc3n2)c(OC)c1	8.3 µg/mL (≈ 21.4 µM)
CCN(CC)c1ccc(NC(=O)CSC(=O)c2ccccc2)cc1.O=S(=O)(O)O	4.1 µg/mL
C=CC[C@H]1CC(C)=C[C@H](CC=C)[NH2+]1.[Cl-]	> 32.1 µg/mL
Cc1nc(C(=O)NNC(=O)c2cccc(Cl)c2)c(C(F)(F)F)o1	> 52.2 µg/mL
COC(=O)C1=CNC=C(C(=O)OC)C1c1cccc2ccccc12	2.6 µg/mL (≈ 8.04 µM)
CCCN1C2CCCC1CC(NC(=S)Nc1cccc(C)c1)C2 (centres undefined)	> 49.7 µg/mL
COc1ccccc1NC(=O)NCC1CC1(Cl)Cl (centres undefined)	42.1 µg/mL (≈ 146 µM)

The remaining lines, values ahead:

solubility kinetic	Structure (SMILES)
0.7 µg/mL (≈ 2.28 µM)	CC(C)(C)C(=O)CSc1ncnc2sc3c(c12)CCC3
7.5 µg/mL (≈ 27.4 µM)	O=C(/C=C/c1cccc(F)c1)OCC(=O)c1ccc[nH]1
> 53.3 µg/mL	CN(Cc1cccc(Cl)c1Cl)C(=O)CCNC(=O)c1ccco1
1.6 µg/mL (≈ 4.83 µM)	Cc1ccc(-c2ccc(S(=O)(=O)NCC3CCCO3)cc2)cc1 (centres undefined)
19.6 µg/mL (≈ 56.7 µM)	COC(=O)C1Cc2ccccc2CN1S(=O)(=O)c1ccc(C)cc1 (centres undefined)
> 37.7 µg/mL	O=C(COC(=O)/C=C/c1cccs1)NC1CC1
38.4 µg/mL (≈ 138 µM)	COc1ccc(CNC(=S)NC2CCCCC2)cc1
10.4 µg/mL (≈ 30.6 µM)	COc1cc(NC(=O)c2ccc(N3CCCC3=O)cc2)cc(OC)c1
48.1 µg/mL (≈ 139 µM)	CC(C)OCCCNC(=O)COc1ccc2oc3c(c2c1)CCCC3
> 48.7 µg/mL	COC(=O)CCCC(=O)N1CCC(CCC(=O)NC2CC2)CC1
> 50.8 µg/mL	CC(C)CNS(=O)(=O)c1ccc(CCC(=O)N2CCCC2)cc1
> 45.4 µg/mL	CCCCc1nc2cc(C(=O)N3CCC[C@H]3CO)ccc2o1
> 41.1 µg/mL	CC(C(=O)O)c1ccc2c(c1)[nH]c1ccc(Cl)cc12 (centres undefined)
34.3 µg/mL (≈ 132 µM)	CC12CN3CC(C)(CN(C1)C3c1ccccc1F)C2 (centres undefined)
> 48.8 µg/mL	COc1cc(NC(=S)N2CCN(CCO)CC2)cc(OC)c1
40.7 µg/mL (≈ 128 µM)	CC(=O)c1ccc(NC(=S)Nc2cccc(Cl)c2C)cc1
4.4 µg/mL (≈ 11.1 µM)	O=C(COC(=O)c1ccc2ncsc2c1)Nc1ccc(OC(F)(F)F)cc1
1.7 µg/mL (≈ 5.78 µM)	O=C(NCc1ccc(-n2cccc2)cc1)c1cccc(F)c1
> 36.2 µg/mL	O=C1c2ccccc2C(=O)N1CCn1ccnc1
> 37.5 µg/mL	Cc1nonc1NC(=O)CSc1ccccn1
23.6 µg/mL (≈ 115 µM)	O=C1CCC/C1=C/Nc1cccc(F)c1
29.4 µg/mL (≈ 97.6 µM)	CCc1ccc(OCC(=O)Oc2ccc([N+](=O)[O-])cc2)cc1
